Experimental data reported in patent US11564911B2, “Small molecule dual-inhibitors of TRPV4 and TRPA1 for sanitizing and anesthetizing” (Duke University, priority 2016, dated 2023).

What was measured:
[1] = test system: mouse paw-pad skin, UVB-photodermatitis; assay: UVB-exposed paw-pad skin after topical GSK205: histopathology and mediators; format: in vivo
Method: GSK205 topical treatment: A viscous solution of 68% EtOH/5% glycerol plus 1 mM or 5 mM GSK205 (none for control) was applied to hindpaws by rubbing in 20 μL, applied at time-points 1 hour and again 10 min before UV exposure.
Routine procedures were followed as described previously (Chen et al., 2009). Mice were perfused transcardially with 30 mL PBS, followed by 30 mL 4% paraformaldehyde. Tissues, including the L5 DRGs (bilateral), and footpad preparations, were dissected and post-fixed in 4% paraformaldehyde. Tissue blocks were further cryoprotected in 30% sucrose in PBS for 24-48 hours. For mouse TRPV4, keratin-specific antibodies, phospho-ERK, IL-6, IL-1β, CXCL5 and caspase-1, tissue was prepared as frozen blocks and subsequently sectioned on a cryostat. For CD68, CD15 (neutrophil elastase) and CD3, mouse skin was prepared by 2% PFA perfusion. Footpad and DRG sections (both at 6-10 μm) were thaw-mounted, blocked with 5% normal goat serum (NGS; Jackson), then incubated overnight at 4° C. with the following primary antibodies: rabbit anti-TRPV4 (1:300; Abcam), mouse anti-keratin 14 (1:300; Abcam against C-terminal peptide beyond residue 850); rabbit anti-keratin 14 (1:1000; Fuchs-Lab), rabbit anti-phosph-ERK1/2 (1:500; Cell signaling technologies), goat anti-IL-1β (1:800; Abcam), goat anti-IL-6 (1:200; Santa Cruz Biotechnology Inc); rabbit anti-caspase-1 (1:200; Biovision Research Products, CA); goat anti-mouse LIX/CXCL5 (1:200; R&D Systems Inc), anti-CD68, anti-[…], and anti-CD3 (AbDSerotec). Immunodetection was accomplished with appropriate fluorescently-labeled secondary antibodies (AlexaFluor595, AlexaFluor488-conjugated antibodies at 1:600; Invitrogen; for CD15 biotinylated secondary antibody from donkey, 1:400 followed by rhodamine-streptavidine 1:250), or with peroxidase-linked detection reagents (for CD68) for 2 hours at room-temperature. Sections were rinsed, mounted, and cover-slipped with fluoromount (Sigma). Digital micrographs were obtained using a BX61 Olympus upright microscope, also with a Zeiss LSM510 confocal, both equipped with high-res CCD camera, and acquired with constant exposure settings, using ISEE or Zeiss Zen software. Morphometric analysis was conducted using ImageJ freeware (v1.45) with tailored regions-of-interest that spared the nuclear compartment. ImageJ was also used for determination of DRG surface area.

TRPV4 = target: T1, TRPV4 (Sus scrofa, UniProt B3VP30); assay: Ca++ imaging in primary articular chondrocytes, GSK101 stimulation; format: cell-based; conditions: primary articular chondrocytes (pig), 5 nM GSK101
T1 construct: primary cells, which express functional and biologically-relevant TRPV4 without directed over-expression of the channel; endogenous in cells; host or cells: primary porcine articular chondrocytes (femoral condyles)
Method: FIGS. 28A-28B: Compound 16-8 inhibits TRPV4 in I° cells more potently than GSK205. […] Inset: Chondrocytes responding to activation with GSK101, fura-2 Ca++ imaging; right-hand image taken at 5 sec after GSK101 application. […] (FIG. 28B) 1° (primary) astrocytes (rat); dose-response comparison between 16-8 and GSK205 in response to 5 nM GSK101. Inset: Astrocytes responding to activation with GSK101; right-hand image taken at 5 sec after GSK101 application (mean±SEM, n=5 independent expts, 200 cells/expt; *p<0.05, t-test).
Primary porcine chondrocytes derived from femoral condyles of skeletally mature pigs were cultured and subjected to Ca++ imaging as described previously^19,32,62,63.

T1 sequence (B3VP30 1-871): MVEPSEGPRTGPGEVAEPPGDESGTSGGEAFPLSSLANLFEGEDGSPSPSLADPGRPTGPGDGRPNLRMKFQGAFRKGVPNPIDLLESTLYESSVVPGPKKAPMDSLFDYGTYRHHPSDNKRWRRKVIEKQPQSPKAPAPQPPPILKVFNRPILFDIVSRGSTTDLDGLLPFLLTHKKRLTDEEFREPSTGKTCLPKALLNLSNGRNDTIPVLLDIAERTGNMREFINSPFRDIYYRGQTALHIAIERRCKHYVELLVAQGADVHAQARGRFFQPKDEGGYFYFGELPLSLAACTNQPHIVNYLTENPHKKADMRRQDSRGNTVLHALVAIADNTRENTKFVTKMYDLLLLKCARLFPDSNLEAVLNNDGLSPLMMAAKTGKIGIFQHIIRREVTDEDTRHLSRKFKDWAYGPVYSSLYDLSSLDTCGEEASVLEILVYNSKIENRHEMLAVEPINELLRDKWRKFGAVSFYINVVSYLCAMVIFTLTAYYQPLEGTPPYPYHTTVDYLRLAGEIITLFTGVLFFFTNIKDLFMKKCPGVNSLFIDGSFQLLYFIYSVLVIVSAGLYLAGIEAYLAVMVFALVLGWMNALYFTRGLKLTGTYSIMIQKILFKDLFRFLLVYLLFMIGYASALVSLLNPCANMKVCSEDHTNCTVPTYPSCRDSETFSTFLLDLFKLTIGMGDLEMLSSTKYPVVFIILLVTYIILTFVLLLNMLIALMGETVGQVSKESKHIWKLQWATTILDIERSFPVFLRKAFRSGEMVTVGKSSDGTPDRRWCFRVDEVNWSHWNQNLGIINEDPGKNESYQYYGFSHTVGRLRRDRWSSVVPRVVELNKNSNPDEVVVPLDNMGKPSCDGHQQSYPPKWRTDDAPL

SMILES | CXCL5 upregulation in UVB-exposed footpad ([1]; topical 5 mM GSK205) | IL-1β upregulation in UVB-exposed mouse skin ([1]; topical 5 mM GSK205) | IL-6 upregulation in UVB-exposed footpad ([1]; topical 5 mM GSK205) | histopathology of UVB-exposed paw skin ([1]; topical 5 mM GSK205) | Edn1 mRNA-expression in UVB-exposed paw-pad skin ([1]; topical 5 mM GSK205, 2 h and 24 h) | potency versus GSK205, dose-response of peak ΔCa++ (TRPV4)
CN(CCc1ccc(Nc2nc(-c3cccnc3)cs2)cc1)Cc1ccccc1 [GSK205] | significant blocks | failed to upregulate | significant blocks | virtual elimination of inflammation | unchanged | 
CN(CCc1ccc(Nc2nc(-c3ccccc3)cs2)cc1)Cc1ccccc1 [Compound 16-8] |  |  |  |  |  | significantly more potent than GSK205
